Reference: patent US9751854B2 (Millennium Pharmaceuticals, Inc., priority 2014, dated 2017)
One block for each molecule: values may come before it.

Tests used:
human VPS34 = human VPS34 (Homo sapiens (Human), UniProt Q8NEB9); experiment: Human VPS34 enzyme assay (Adapta TR-FRET ADP detection); assay type: biochemical; design: Percent Inhibition: dose or concentration left out as unconfirmed; conditions: for IC50: IC50 range class
NCI-H1975 cell line = experiment: Cellular anti-proliferative assay of VPS34 inhibitors in combination with a second therapeutic agent (Cell Titer Glo, 72 hrs); assay type: cell-based, human
Description: (§1) Example 57: Cellular Assay for Anti-proliferative Activity of VPS34 Inhibitors in Combination with a Second Therapeutic Agent
(§2) Cells were plated in 25 μl of media in 384 well plates at 1,000 cells per well (A431, PC9, and […] cell lines), 1,500 cells per well (NCI-H1975) or 2,000 cells per well (NCI-H1650). The plates were incubated for 24 hrs at 37° C., 6% CO2. The test compounds (see Table 38 below) were diluted serially, and 62.5 nL of each compound solution (or DMSO, if it is a single agent experiment) is added so the total added to the cells is 125 nL. Cell plates were incubated for 72 hrs at 37° C., 6% CO2. Cell Titer Glo reagent (Promega) was added. The plates were then incubated for 10 minutes at room temperature before luminescence was read on a plate reader such as the Pherastar Plus, Pherastar FS, or LEADSeeker imaging system.
(§3) Bliss antagonism was defined similarly.
(§4) Bliss dependence was defined as the percent cell survival at a certain dose combination divided by the percent cell survival predicted by Bliss independence. More specifically, the Bliss dependence is vAB/(vA*vB), where vAB is the viability with drug A and drug B added, while vA and vB are the viabilities with each drug alone. The dose for the combination used in this study is the inflection point for each drug alone.
(§5) Another way to evaluate additivity is through consideration of Loewe additivity. A difference between Bliss independence and Loewe additivity evaluations of drug combination data is that Bliss independence evaluates whether two drugs interact at all (the null hypothesis is that the mechanisms are entirely independent) and Loewe additivity evaluates whether two drugs interact in an additive fashion (the null hypothesis is that the two drugs work by identical mechanisms). For Bliss independence, the boundary between additivity and synergy must be measured. For Loewe additivity, this boundary is assumed to be at a value of 1. Thus, Bliss independence provides a boundary between antagonism and synergy or additivity. Loewe additivity provides a boundary between synergy and independence or antagonism.
(§6) Synergy can also be measured by nonlinear blending synergy. Nonlinear blending synergy [Peterson, J. J. and Novik, S. J. J Recept Signal Transduct Res, 27, 12-146 (2007))] is found by considering the percent cell death values along the nonlinear blending plot. If the maximum cell death occurs between the endpoints, then the blending synergy is the difference between the maximum cell death for the combined drugs and the maximum cell death for the either drug alone.
(§7) A derivative of Loewe additivity is the Combination Index, I (see Chou T. C., Talalay P. Adv. Enzyme Reg., 22: 27-55 (1984) and Berenbaum M. C. J. Theor. Biol., 114:413-431 (1985)). This measure is based on the shape of the isobologram which represents 50% viability (for a review of the use of isobolograms in analysis of drug combinations, see Tallarida, R. J. J. Pharm. Exp. Therap. 319:1-7 (2006)).
(§8) The results in Table 38A were summarized by categorizing the Combination Index, I. A mean Combination Index in the range (0.7-1.3) is classified as Additivity. A mean in the range (0-0.7) is classified as Synergy. A mean in the range (1.3-2) is classified as Subadditivity. A mean greater than 2 is classified as Antagonism. […] In this case, the Nonlinear Blending Synergy is used instead to generate a call (Table 38B). The categorization is similar to the Combination Index. A Nonlinear Blending Synergy within the range (−20, 20) is classified as Additive. A value below −20 is classified as Antagonism, while a value above 20 is classified as Synergy.

NCI-H1650 cell line = experiment: as above; assay type: cell-based, human; conditions: NCI H-1650; for Blending Synergy: in combination with Erlotinib (Compound Y)
Description: as §1, §2, §3, §4, §5, §6, §7, §8

PC9 cell line = experiment: as above; assay type: cell-based, human
Description: as §1, §2, §3, §4, §5, §6, §7, §8

A431 cell line = experiment: as above; assay type: cell-based
Description: as §1, §2, §3, §4, §5, §6, §7, §8

[1] = in combination with Afatinib (Compound Y)
[2] = in combination with Afatinib, call from Combination Index
[3] = in combination with Erlotinib (Compound Y)
[4] = in combination with Erlotinib, call from Combination Index
[5] = in combination with AZD9291 (Compound Y)
[6] = in combination with CO-1686 (Compound Y)
[7] = in combination with AZD9291, call from Combination Index
[8] = in combination with CO-1686, call from Combination Index

Chain of human VPS34 (Q8NEB9 whole entry): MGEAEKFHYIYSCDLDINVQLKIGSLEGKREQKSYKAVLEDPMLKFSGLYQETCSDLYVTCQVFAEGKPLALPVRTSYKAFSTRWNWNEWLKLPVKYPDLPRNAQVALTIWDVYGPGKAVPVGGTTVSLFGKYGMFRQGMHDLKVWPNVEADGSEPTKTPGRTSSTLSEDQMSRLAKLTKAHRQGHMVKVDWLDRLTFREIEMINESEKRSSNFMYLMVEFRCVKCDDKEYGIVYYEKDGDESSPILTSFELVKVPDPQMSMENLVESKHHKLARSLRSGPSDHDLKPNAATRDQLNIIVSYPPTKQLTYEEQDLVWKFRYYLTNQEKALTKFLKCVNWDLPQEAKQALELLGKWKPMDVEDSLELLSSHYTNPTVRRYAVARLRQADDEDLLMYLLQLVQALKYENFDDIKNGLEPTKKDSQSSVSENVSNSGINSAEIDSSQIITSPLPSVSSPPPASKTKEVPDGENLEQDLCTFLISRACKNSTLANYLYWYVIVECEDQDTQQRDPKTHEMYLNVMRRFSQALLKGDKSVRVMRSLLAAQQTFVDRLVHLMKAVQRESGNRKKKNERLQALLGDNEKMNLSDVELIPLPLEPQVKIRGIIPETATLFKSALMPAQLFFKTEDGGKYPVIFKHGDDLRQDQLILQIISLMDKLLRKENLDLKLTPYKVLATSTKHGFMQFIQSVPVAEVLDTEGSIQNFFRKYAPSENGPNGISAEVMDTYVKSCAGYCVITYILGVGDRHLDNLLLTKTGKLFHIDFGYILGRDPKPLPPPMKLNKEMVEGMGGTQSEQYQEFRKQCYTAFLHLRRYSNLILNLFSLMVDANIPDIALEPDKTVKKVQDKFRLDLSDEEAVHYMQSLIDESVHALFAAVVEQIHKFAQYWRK

- IC50 (human VPS34): < 10 nM
SMILES: CC(=O)Nc1cc(-c2cnc(C)c(NS(=O)(=O)N(C)C)c2)ccn1 [Compound I-32, N-{5-[(dimethylsulfamoyl)amino]-6-methyl-3,4′-bipyridin-2′-yl}acetamide]
- Combination Index (NCI-H1975 cell line; [1]): 0.66
- Combination Index (NCI-H1650 cell line; [1]): 0.40
- Blending Synergy (NCI-H1650 cell line): 22.29
- Combination Index (PC9 cell line; [1]): 0.79
- Meaning (PC9 cell line; [2]): Additivity (A mean Combination Index in the range (0.7-1.3) is classified as Additivity)
- Combination Index (PC9 cell line; [3]): 0.78
- Meaning (PC9 cell line; [4]): Additivity (A mean Combination Index in the range (0.7-1.3) is classified as Additivity)
- Combination Index (A431 cell line; [1]): 0.25
- Meaning (A431 cell line; [2]): Synergy (A mean in the range (0-0.7) is classified as Synergy)
- Combination Index (A431 cell line; [3]): 0.73
- Meaning (A431 cell line; [4]): Additivity (A mean Combination Index in the range (0.7-1.3) is classified as Additivity)

- IC50 (human VPS34): < 10 nM
SMILES: CC(=O)Nc1cc(-c2cnc(Cl)c(NS(=O)(=O)c3ccc(F)cc3F)c2C)ccn1 [Compound I-153, N-(6-chloro-5-{[(2,4-diflourophenyl)sulfonyl]amino}-4-methyl-3,4′-bipyridin-2′-yl)acetamide]
- Blending Synergy (NCI-H1975 cell line; [1]): 8.72
- Combination Index (NCI-H1650 cell line; [1]): 0.64
- Blending Synergy (NCI-H1650 cell line): 23.76
- Combination Index (PC9 cell line; [1]): 1.17
- Meaning (PC9 cell line; [2]): Additivity (A mean Combination Index in the range (0.7-1.3) is classified as Additivity)
- Combination Index (PC9 cell line; [3]): 0.97
- Meaning (PC9 cell line; [4]): Additivity (A mean Combination Index in the range (0.7-1.3) is classified as Additivity)
- Combination Index (A431 cell line; [1]): 0.23
- Meaning (A431 cell line; [2]): Synergy (A mean in the range (0-0.7) is classified as Synergy)
- Blending Synergy (A431 cell line; [3]): 16.3
- Meaning (A431 cell line; in combination with Erlotinib, call from Nonlinear Blending Synergy): Additivity

- IC50 (human VPS34): 10 to 50 nM
SMILES: Cc1nccc(Nc2cc(-c3cnc(C)c(C(=O)N4CCC4)c3)ccn2)n1 [Compound I-304, Azetidin-1-yl(6-methyl-2′-((2-methylpyrimidin-4-yl)amino)-3,4′-bipyridin-5-yl)methanone]
- Combination Index (NCI-H1975 cell line; [5]): 1.00
- Combination Index (NCI-H1975 cell line; [6]): 0.77
- Combination Index (NCI-H1650 cell line; [5]): 0.80
- Combination Index (NCI-H1650 cell line; [6]): 0.47
- Combination Index (PC9 cell line; [5]): 0.98
- Meaning (PC9 cell line; [7]): Additivity (A mean Combination Index in the range (0.7-1.3) is classified as Additivity)
- Combination Index (PC9 cell line; [6]): 0.90
- Meaning (PC9 cell line; [8]): Additivity (A mean Combination Index in the range (0.7-1.3) is classified as Additivity)
- Combination Index (A431 cell line; [5]): 0.78
- Meaning (A431 cell line; [7]): Additivity (A mean Combination Index in the range (0.7-1.3) is classified as Additivity)
- Combination Index (A431 cell line; [6]): 0.99
- Meaning (A431 cell line; [8]): Additivity (A mean Combination Index in the range (0.7-1.3) is classified as Additivity)

- Percent Inhibition (human VPS34): 79%
- IC50 (human VPS34): < 10 nM
SMILES: CCc1c(-c2ccnc(Nc3ccnc(C)n3)c2)cnc(Cl)c1NS(=O)(=O)c1ccc(F)cc1F [Compound I-259, N-{6-chloro-4-ethyl-2′-[(2-methylpyrimidin-4-yl)amino]-3,4′-bipyridin-5-yl}-2,4-difluorobenzenesulfonamide]

More lines, now with the values behind:

SMILES: Cc1nccc(Nc2cc(-c3cnc(Cl)c(NS(=O)(=O)c4ccc(F)cc4F)c3C)ccn2)n1 [Compound I-299, N-{6-chloro-4-methyl-2′-[(2-methylpyrimidin-4-yl)amino]-3,4′-bipyridin-5-yl}-2,4-difluorobenzenesulfonamide]
- IC50 (human VPS34): 10 to 50 nM
- Combination Index (NCI-H1975 cell line; [5]): 0.54
- Combination Index (NCI-H1975 cell line; [1]): 0.68
- Combination Index (NCI-H1975 cell line; [6]): 0.72
- Combination Index (NCI-H1650 cell line; [5]): 0.87
- Combination Index (NCI-H1650 cell line; [1]): 0.47
- Combination Index (NCI-H1650 cell line; [6]): 0.43
- Blending Synergy (NCI-H1650 cell line): 26.93
- Combination Index (PC9 cell line; [5]): 1.17
- Meaning (PC9 cell line; [7]): Additivity (A mean Combination Index in the range (0.7-1.3) is classified as Additivity)
- Combination Index (PC9 cell line; [1]): 1.37
- Meaning (PC9 cell line; [2]): Subadditivity (A mean in the range (1.3-2) is classified as Subadditivity)
- Combination Index (PC9 cell line; [6]): 1.00
- Meaning (PC9 cell line; [8]): Additivity (A mean Combination Index in the range (0.7-1.3) is classified as Additivity)
- Combination Index (PC9 cell line; [3]): 1.18
- Meaning (PC9 cell line; [4]): Additivity (A mean Combination Index in the range (0.7-1.3) is classified as Additivity)
- Combination Index (A431 cell line; [5]): 1.00
- Meaning (A431 cell line; [7]): Additivity (A mean Combination Index in the range (0.7-1.3) is classified as Additivity)
- Combination Index (A431 cell line; [1]): 1.01
- Meaning (A431 cell line; [2]): Additivity (A mean Combination Index in the range (0.7-1.3) is classified as Additivity)
- Combination Index (A431 cell line; [6]): 1.02
- Meaning (A431 cell line; [8]): Additivity (A mean Combination Index in the range (0.7-1.3) is classified as Additivity)
- Combination Index (A431 cell line; [3]): 1.01
- Meaning (A431 cell line; [4]): Additivity (A mean Combination Index in the range (0.7-1.3) is classified as Additivity)

SMILES: Cc1ncc(-c2ccnc(Nc3ccncn3)c2)cc1NS(=O)(=O)N(C)C [Compound I-217, N,N-dimethyl-N′-[6-methyl-2′-(pyrimidin-4-ylamino)-3,4′-bipyridin-5-yl]sulfuric diamide]
- IC50 (human VPS34): < 10 nM
- Combination Index (NCI-H1975 cell line; [1]): 0.52
- Combination Index (NCI-H1650 cell line; [1]): 0.31
- Blending Synergy (NCI-H1650 cell line): 28.65
- Combination Index (PC9 cell line; [1]): 0.97
- Meaning (PC9 cell line; [2]): Additivity (A mean Combination Index in the range (0.7-1.3) is classified as Additivity)
- Combination Index (PC9 cell line; [3]): 0.87
- Meaning (PC9 cell line; [4]): Additivity (A mean Combination Index in the range (0.7-1.3) is classified as Additivity)
- Combination Index (A431 cell line; [1]): 0.36
- Meaning (A431 cell line; [2]): Synergy (A mean in the range (0-0.7) is classified as Synergy)
- Combination Index (A431 cell line; [3]): 0.46
- Meaning (A431 cell line; [4]): Synergy (A mean in the range (0-0.7) is classified as Synergy)

SMILES: COC(=O)Nc1cc(-c2cnc(C)c(NS(=O)(=O)c3ccc(Cl)cc3F)c2)ccn1 [Compound I-417, methyl (5-{[(4-chloro-2-fluorophenyl)sulfonyl]amino}-6-methyl-3,4′-bipyridin-2′-yl)carbamate]
- IC50 (human VPS34): < 10 nM

SMILES: Nc1cncc(-c2ccnc(N)c2)c1 [Compound I-231, 3,4′-bipyridine-2′,5-diamine]
- IC50 (human VPS34): > 100 nM
